From patent publication US20050009868A1, “Retinoid receptor pan-antagonists for stimulating chondrogenesis” (priority 2001, published 2005)
Where two headings read alike, the source gives them in different places.

What was measured:
[1] = test system: primary limb mesenchymal cultures; assay: Cartilage nodule formation in primary limb mesenchymal cultures (alcian blue staining); assay type: cell-based, mouse
Description: (§1) Limb mesenchymal cells were harvested from embryonic age 11.25-11.75 mouse embryos as previously described (Weston et al., 2000). The cells were resuspended at a density of about 2.5×10^7 cells/ml prior to transfections, otherwise they were resuspended at 1.5×10^7 cells/ml. For transfection purposes, cells were mixed with a DNA/FuGene6 mixture in a 2:1 ratio. FuGene6-DNA mixtures were prepared according to the manufacturer's instructions (Roche Biomolecular). Briefly, 1 μg of reporter, 1 μg of expression vector and 0.05 μg of pRLSV40 (Promega) were mixed for a total of about 2 μg DNA in 100 μL of media and FuGene6. Fifty microlitres of the DNA mixture was transferred into a sterile 1.5 ml eppendorf tube, followed by 100 μl of cells. Cells were gently triturated and 10 μl was used to seed each single well of a 24-well culture dish. After 1.5 hrs in a humidified CO2 incubator, 1 ml of media containing compounds of interest was added to each well and was subsequently replaced 24 hours following transfection. All-trans RA (at-RA; Sigma), AGN193836 (Teng et al., 1996), AGN194301 (Teng et al., 1997) and AGN194310 (Johnson et al., 1999)(Allergan Inc.) were dissolved in 95% ethanol. SB202190 and SB203580 (Calbiochem) and H89 (Sigma) were dissolved in dimethyl sulfoxide (DMSO) (BDH). 8-(4-chlorophenylthio)-cAMP (pCPT-cAMP, Sigma) was dissolved in water just prior to use.
(§2) Analysis of reporter gene activity using the Dual Luciferase Assay System was done following the manufacturer's instructions (Promega). Briefly, approximately 48 hours following the transfections, cells were washed once with PBS and lysed in 100 μl of Passive Lysis Buffer for 20 minutes. Firefly and renilla luciferase activities were determined using 40 μl of lysate in a 96-well plate-reading luminometer (Molecular Devices). Alcian blue staining of cultures was carried out as described previously (Cash et al., 1997).

pGL3(4×48) Sox9 reporter = assay: Sox9 reporter (pGL3(4×48)) luciferase assay in transiently transfected primary limb mesenchymal cultures; assay type: cell-based, mouse; conditions: for effect on the antagonist-induced increase in Sox9 reporter activity (in words): co-treatment with AGN194301 or AGN194310
Description: The Sox9 responsive reporter (herein referred to as the Sox9 reporter) was generated by subcloning a fragment containing a reiterated (4×48) Sox9 binding sequence coupled to the mouse Col2a1 minimal promoter (−89 to +6) into pGL3. The fragment containing the 4×48 repeat and minimal promoter was isolated as a BamH I/Hind III fragment from the original 4×48-p89Luc reporter plasmid previously described (Lefebvre et al., 1997), and was subcloned into the BgI II and Hind III sites of pGL3-basic (Promega) to generate pGL3(4×48). The reporter pW1-Col2-Luc was generated from the original p309i(182×2)βgeoCol2a1 (Zhou et al., 1995) by subcloning the regulatory region (consisting of a 309-bp promoter region and two tandem repeats of a 182-bp intron-1 fragment) into pW1 (Balkan et al., 1992) as an EcoR I/BamH I fragment. A BgI II fragment containing the luciferase gene isolated from pJD205 (de Wet et al., 1987) was subcloned into the BamH I site of pW1-Col2 to generate pW1-Col2-Luc. The pcDNA3-hSox9 expression vector was as described (Lefebvre et al., 1997). To generate a mutated form of hSox9, hSox9 was subcloned into pKSII (Stratagene) and serine 181 was replaced with alanine, using the Quick-Change XL system (Stratagene) with the following overlapping primers: 5′-[…]-3′, and 5′-[…]-3′. Following mutagenesis, the Sox9 mutant and wt Sox9 were subcloned into pcDNA3, and the serine-alanine conversion was confirmed by sequencing.
as §1, §2

[2] = test system: RA response element (pW1-βRARE3-Luc); assay: Retinoic acid responsive reporter (pW1-βRARE3-Luc) luciferase assay in primary limb mesenchymal cells; assay type: cell-based, mouse; conditions: for effect on RARE reporter activity (in words): concentration series
Description: as §1, §2

Sox9 mRNA = assay: Northern blot of Sox9 mRNA in limb mesenchymal cultures; assay type: cell-based, mouse; conditions: 1 μM, 2-day cultures
Description: Northern blots were carried out using total RNA from limb mesenchymal cultures, as previously described (Weston et al., 2000). Briefly, total RNA was extracted from cells cultured for 2, 4, 6 or 8 days. Cells were treated with media alone or with AGN 194301. Synthesis of the Col2a1 cDNA fragment used was as described previously (Weston et al., 2000). The Sox9 cDNA probe was made using an EST clone, GenBank accession number Al594348 (Research Genetics). The Sox9 fragment was released from pT7T3 using Eco RI and Not I.

[3] = test system: primary limb mesenchymal cultures; conditions: earlier work, Weston et al., 2000; cited from earlier work
IL-2 gene expression = conditions: Koyama et al., 2000; read-out: IC50 for inhibition of IL-2 gene expression; cited from earlier work
[4] = 10 μM, versus untreated control cultures
[5] = day 4 alcian blue-stained cultures

For `O=S(=O)(NCCNC/C=C/c1ccc(Br)cc1)c1cccc2cnccc12` [H89], the “cartilage nodule formation (in words)” value [1, 4] was “fewer nodules are detected compared to untreated cultures”, the “effect on Sox9 reporter activity (in words)” value (pGL3(4×48) Sox9 reporter; 10 μM, absence of exogenous Sox9) was “repressed reporter activity” and the “effect on the antagonist-induced increase in Sox9 reporter activity (in words)” value (pGL3(4×48) Sox9 reporter) was “reduced Sox9 reporter activity both in the presence or absence of AGN194301 or dnRARα”. For the same molecule, the “effect on Sox9 reporter activity (in words)” value (pGL3(4×48) Sox9 reporter; presence of co-transfected Sox9) was “slightly decreased reporter activity”.

For `CCc1ccc(C2=CC(C)(C)Sc3ccc(C#Cc4ccc(C(=O)O)cc4)cc32)cc1` [AGN194310], the “concentration at which increase in nodule formation can be observed” value ([1]; treatment for 4 days, alcian blue) was 10 nM, the “effect on RARE reporter activity (in words)” value [2] was “attenuated by 310 more effectively than by 301” and the “maximal induction of Sox9 reporter activity” value (pGL3(4×48) Sox9 reporter; at 50 nM, primary limb mesenchymal cells) was about 530%. The “concentration inducing Sox9 reporter activity greater than the maximal response elicited by 301” value (pGL3(4×48) Sox9 reporter; concentrations as low as) was at least 10 nM.

For `Nc1ncnc2c1nc(Sc1ccc(Cl)cc1)n2[C@@H]1O[C@@H]2COP(=O)(O)O[C@H]2[C@H]1O` [pCPT-cAMP, 8-(4-chlorophenylthio)-cAMP], the “increase in Sox9 reporter activity” value (pGL3(4×48) Sox9 reporter; 500 μM, absence of exogenous Sox9) was “about 4.5 fold” and the “further increase in Sox9 reporter activity” value (pGL3(4×48) Sox9 reporter; co-transfection with wt Sox9 or Sox9-181A) was under 1.5 fold.

For `Oc1ccc(-c2nc(-c3ccncc3)c(-c3ccc(F)cc3)[nH]2)cc1` [SB202190], the “cartilage nodule formation (in words)” value [1, 4] was “almost no cartilage nodules form”, the “effect on Sox9 reporter activity (in words)” value (pGL3(4×48) Sox9 reporter; 5 or 10 μM) was “decrease in Sox9 reporter activity compared to untreated controls” and the “effect on the antagonist-induced increase in Sox9 reporter activity (in words)” value (pGL3(4×48) Sox9 reporter) was “attenuated the chondrogenic response to AGN194301”.

In the case of `Cc1ccc(C2=CC(C)(C)Oc3c(Br)cc(C(=O)Nc4ccc(C(=O)O)c(F)c4)cc32)cc1` [AGN194301, 2-Fluoro-4-[(1-(8-bromo-2,2-dimethyl-4-(4-methylphenyl)-2-H-chromen-6-yl)-methanoyl)-amino]-benzoic acid], the “concentrations inducing significant changes in activity of the RARE reporter (Bonferroni post-tests)” value ([2]; FIG. 1B, P at least <0.05) is listed as at least 100 nM, the “Sox9 mRNA expression (in words)” value (Sox9 mRNA) is listed as “noticeable increase in Sox9 mRNA” and the “cartilage nodule formation (in words)” value [3] is listed as “substantial increase in the number of cartilage nodules”. The “concentrations giving significant differences in Sox9 reporter activity (Bonferroni post-tests)” value (pGL3(4×48) Sox9 reporter; FIG. 1A, P at least <0.05) was at least 100 nM, the “greatest induction of Sox9 reporter activity” value (pGL3(4×48) Sox9 reporter; at 1 μM, primary limb mesenchymal cells) was “about 280%” and the “effect on Sox9 reporter activity (in words)” value (pGL3(4×48) Sox9 reporter; concentration series) was “concentration-dependent increase in reporter activity”.

In the case of `CC(/C=C/C(=O)NO)=C\[C@@H](C)C(=O)c1ccc(N(C)C)cc1` [TSA, Trichostatin A], the “cartilage nodule formation (in words)” value [1, 5] is listed as “decrease in the number of cartilage nodules”, the “effect on RARE reporter activity (in words)” value [2] is listed as “enhanced activity of the pW1-αRARE3tkLuc reporter in a concentration-dependent manner” and the IC50 (IL-2 gene expression) is listed as 73 nM. For the same molecule, the “effect on the antagonist-induced increase in Sox9 reporter activity (in words)” value (pGL3(4×48) Sox9 reporter) was “attenuated the 310-induced increase” and the “effect on Sox9 reporter activity (in words)” value (pGL3(4×48) Sox9 reporter; concentration series) was “dose-dependent decrease in Sox9 reporter activity”.

In the case of `CC1=C(/C=C/C(C)=C/C=C/C(C)=C/C(=O)O)C(C)(C)CCC1` [at-RA, All-trans RA], the “cartilage nodule formation (in words)” value [1, 5] is reported as “more potent inhibitor of cartilage nodule formation than 836”, the “effect on RARE reporter activity (in words)” value [2] is reported as “activated the RARβ reporter to a greater extent than about 836” and the “Sox9 reporter activity reduced to (% of control)” value (pGL3(4×48) Sox9 reporter; at 5 nM) is reported as 53%. For the same molecule, the “effect on Sox9 reporter activity (in words)” value (pGL3(4×48) Sox9 reporter; concentration series) was “attenuated reporter activity”.
